Laboratory results reported in ChEMBL document CHEMBL1201862, “PubChem BioAssay data set” (2004).
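Five concentrations, 48 hours, 96-well plates. GI50 is the concentration that inhibits growth by half.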 Calls of active or inactive are those of the source. Rule as the data show it: active = GI50 up to about 1.1 µM and inactive = higher.

Columns and labels:
Test in all cases: DTP human tumour cell line panel, 48 h
NCI-H226 = tested on: NCI-H226
786-0 = tested on: 786-0
SF-268 = tested on: SF-268
A498 = tested on: A498
M14 = tested on: M14
HT-29 = tested on: HT-29
MCF7 = tested on: MCF7
T47D = tested on: T47D
OVCAR-4 = tested on: OVCAR-4
UACC-257 = tested on: UACC-257
NCI-H460 = tested on: NCI-H460
Hs-578T = tested on: Hs-578T
OVCAR-5 = tested on: OVCAR-5
EKVX = tested on: EKVX
NCI-H23 = tested on: NCI-H23
HL-60 = tested on: HL-60
OVCAR-8 = tested on: OVCAR-8
SK-OV-3 = tested on: SK-OV-3
KM12 = tested on: KM12

Measured: GI50

C[C@H](C(O)CC(=O)C(C)(C)O)[C@H]1CC[C@@]2(C)[C@@H]3CC[C@H]4C(C)(C)[C@@H](OC5OC(COC6OC(CO)C(O)C(O)C6O)C(O)C(O)C5O)CC[C@]4(C)C3=CC[C@]12C (some centres not stated)
inactive: NCI-H226 > 100 µM | 786-0 > 100 µM | SF-268 > 100 µM | A498 > 100 µM | M14 > 100 µM | HT-29 > 100 µM | MCF7 > 100 µM | T47D > 100 µM | OVCAR-4 > 100 µM | UACC-257 > 100 µM | NCI-H460 > 100 µM | Hs-578T > 100 µM | OVCAR-5 > 100 µM | EKVX > 100 µM | NCI-H23 > 100 µM | HL-60 > 100 µM | OVCAR-8 > 100 µM | SK-OV-3 > 100 µM | KM12 > 100 µM

COC(=O)C1=CC2CCCC1(O)C(C(C)=O)C2 (configuration not stated)
inactive: NCI-H226 > 100 µM | 786-0 20.2 µM | SF-268 > 21.7 µM | A498 > 100 µM | M14 > 100 µM | HT-29 > 100 µM | MCF7 > 79.6 µM | T47D 27.4 µM | OVCAR-4 > 62.7 µM | UACC-257 > 100 µM | NCI-H460 > 85.1 µM | Hs-578T > 100 µM | OVCAR-5 > 100 µM | EKVX 52.7 µM | NCI-H23 > 77.1 µM | HL-60 24.2 µM | OVCAR-8 44.4 µM | SK-OV-3 > 100 µM | KM12 > 81.1 µM

NC(=O)c1nnc2cc(F)c(F)cc2c1N
inactive: NCI-H226 11.9 µM | 786-0 32.4 µM | SF-268 21.6 µM | A498 41.1 µM | M14 67.5 µM | HT-29 > 100 µM | MCF7 37.9 µM | T47D 40.7 µM | OVCAR-4 > 100 µM | UACC-257 > 100 µM | NCI-H460 58.3 µM | Hs-578T 26.7 µM | OVCAR-5 57.3 µM | EKVX 44.7 µM | NCI-H23 23.3 µM | HL-60 > 100 µM | OVCAR-8 37.3 µM | SK-OV-3 25.5 µM | KM12 > 100 µM

Cn1c(-c2cccs2)cc(-c2cccs2)c1-c1ccsc1
inactive: NCI-H226 > 100 µM | 786-0 > 100 µM | SF-268 > 100 µM | A498 > 100 µM | M14 > 100 µM | HT-29 > 100 µM | MCF7 2.03 µM | T47D > 100 µM | OVCAR-4 > 100 µM | UACC-257 66.8 µM | NCI-H460 > 100 µM | Hs-578T > 100 µM | OVCAR-5 > 100 µM | EKVX > 100 µM | NCI-H23 > 100 µM | HL-60 > 100 µM | OVCAR-8 > 100 µM | SK-OV-3 > 100 µM | KM12 29.5 µM

COc1cc(C)cc2c(-c3c(O)cc(O)c4c3C[C@H](C)N[C@H]4C)cc(-c3cc(-c4c(O)cc(O)c5c4C[C@H](C)N[C@H]5C)c4cc(C)cc(OC)c4c3O)c(O)c12
inactive: NCI-H226 > 100 µM | 786-0 26.9 µM | SF-268 > 100 µM | A498 > 100 µM | M14 > 100 µM | HT-29 36 µM | MCF7 > 100 µM | T47D 63.8 µM | OVCAR-4 > 100 µM | UACC-257 > 100 µM | NCI-H460 75.3 µM | Hs-578T > 100 µM | OVCAR-5 21.4 µM | EKVX > 100 µM | NCI-H23 > 100 µM | HL-60 > 100 µM | OVCAR-8 > 100 µM | SK-OV-3 > 100 µM | KM12 56.2 µM

COc1cc(CNC(=O)[C@H](Cc2ccc(O)cn2)NC(C)=O)cc(OC)c1
inactive: NCI-H226 > 100 µM | 786-0 > 100 µM | SF-268 > 100 µM | A498 > 100 µM | M14 92.5 µM | HT-29 41 µM | MCF7 > 100 µM | T47D 75 µM | OVCAR-4 > 100 µM | UACC-257 65.6 µM | NCI-H460 > 100 µM | Hs-578T > 100 µM | OVCAR-5 > 100 µM | EKVX 60 µM | NCI-H23 > 100 µM | HL-60 19.5 µM | SK-OV-3 > 100 µM | KM12 > 100 µM

CCOC(=O)c1c(-c2ccccc2)c(OC)cn1C
inactive: NCI-H226 > 10 µM | 786-0 > 10 µM | SF-268 > 10 µM | A498 > 10 µM | M14 > 10 µM | HT-29 > 10 µM | MCF7 > 10 µM | T47D > 10 µM | OVCAR-4 > 10 µM | UACC-257 > 10 µM | NCI-H460 > 10 µM | Hs-578T > 10 µM | OVCAR-5 > 10 µM | EKVX > 10 µM | NCI-H23 > 10 µM | HL-60 > 10 µM | OVCAR-8 > 10 µM | SK-OV-3 > 10 µM | KM12 > 10 µM
